Results on 34 compounds are retold here after ChEMBL document CHEMBL5528025, “Design, synthesis and biological evaluation of carbamate derivatives incorporating multifunctional carrier scaffolds as pseudo-irreversible cholinesterase inhibitors for the treatment of Alzheimer's disease” (Eur J Med Chem, 2024).

One may read the IC50 as the concentration at which inhibition is half-maximal. A lower IC50 goes with greater potency.

For series [1], the target named is T1, Acetylcholinesterase (Homo sapiens, UniProt P22303).
T1 sequence (P22303 whole entry): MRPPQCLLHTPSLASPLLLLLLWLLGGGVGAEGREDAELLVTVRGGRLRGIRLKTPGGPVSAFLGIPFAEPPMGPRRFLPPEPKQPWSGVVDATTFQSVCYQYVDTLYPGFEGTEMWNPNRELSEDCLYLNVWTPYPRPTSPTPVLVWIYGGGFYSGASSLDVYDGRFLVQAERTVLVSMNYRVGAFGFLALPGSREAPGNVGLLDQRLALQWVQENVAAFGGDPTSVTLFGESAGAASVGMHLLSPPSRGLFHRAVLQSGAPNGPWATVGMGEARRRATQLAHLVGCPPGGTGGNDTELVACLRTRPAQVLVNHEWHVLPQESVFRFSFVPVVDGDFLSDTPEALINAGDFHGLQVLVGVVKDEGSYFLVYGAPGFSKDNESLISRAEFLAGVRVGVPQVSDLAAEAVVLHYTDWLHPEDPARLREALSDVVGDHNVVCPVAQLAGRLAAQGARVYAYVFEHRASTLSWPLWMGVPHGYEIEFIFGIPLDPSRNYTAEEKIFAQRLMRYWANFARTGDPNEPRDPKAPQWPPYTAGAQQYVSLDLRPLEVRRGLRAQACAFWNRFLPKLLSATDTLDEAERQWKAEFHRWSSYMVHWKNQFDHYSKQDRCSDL
Description: Inhibition of human erythrocyte AChE incubated for 10 mins
The target of series [2] is T2, Cholinesterase (Homo sapiens, UniProt P06276).
T2 sequence (P06276 whole entry): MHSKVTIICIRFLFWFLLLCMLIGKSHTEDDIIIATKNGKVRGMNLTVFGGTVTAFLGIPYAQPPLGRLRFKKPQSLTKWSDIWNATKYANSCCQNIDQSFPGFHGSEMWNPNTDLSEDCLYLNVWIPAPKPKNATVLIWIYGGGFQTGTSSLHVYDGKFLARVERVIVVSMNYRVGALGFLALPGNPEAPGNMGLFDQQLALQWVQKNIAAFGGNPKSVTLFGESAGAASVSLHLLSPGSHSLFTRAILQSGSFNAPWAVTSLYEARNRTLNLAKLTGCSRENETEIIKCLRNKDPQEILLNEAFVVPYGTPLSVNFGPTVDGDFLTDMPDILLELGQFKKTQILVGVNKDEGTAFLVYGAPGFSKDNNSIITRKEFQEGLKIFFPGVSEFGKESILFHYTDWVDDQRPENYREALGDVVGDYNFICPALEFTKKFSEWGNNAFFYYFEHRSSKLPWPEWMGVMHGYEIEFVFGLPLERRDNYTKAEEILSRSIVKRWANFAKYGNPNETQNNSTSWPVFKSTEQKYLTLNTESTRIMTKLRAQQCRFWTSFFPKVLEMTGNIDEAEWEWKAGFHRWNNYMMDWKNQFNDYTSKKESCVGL
Description: Inhibition of human serum BuChE using butyrylthiocholine iodide as substrate incubated for 10 mins followed by substrate addition and measured after 10 mins by DTNB reagent based Ellman's method
Series [3] deals with BV-2. The series is described as follows: Antineuroinflammatory activity in LPS-induced mouse BV-2 cells assessed as increase in IL-4 level at 1.25 to 5 uM incubated for 24 hrs by ELISA. In kind it is functional, cell-based. The note with it: dose 1.25-5 µM.
Series [4] in a line: Cytotoxicity against rat PC-12 cells assessed as cell viability at 10 uM incubated for 24 hrs by CCK-8 assay relative to control. It counts as toxicity, cell-based. The note with it: read-out: Activity. In general terms: Tetrazolium dyes change colour on reduction, which living cells bring about.
The subject of series [5] is PC-12. The series is described as follows: Neuroprotective activity against H2O2-induced rat PC-12 cells assessed as protection against H2O2-induced apoptosis by measuring live cells at 10 uM pretreated for 1 hr followed by H2O2 addition and measured after 24 hrs by Annexin V-FITC/PI staining based flow cytometry analysis (reference value: 63.2%). It counts as functional. The note with it: time 25 hrs. (A flow cytometer gives signals particle by particle.)

Series [6] has as its system BV-2. The series can be described thus: Cytotoxicity against mouse BV-2 cells assessed as reduction in cell viability at 5 uM incubated for 24 hrs by CCK-8 assay. It counts as toxicity, cell-based. The note with it: bv-2, 24 h.
In series [7] the test system is PC-12. The series is described as follows: Inhibition of H2O2 induced ROS production in rat PC-12 cells assessed as reduction in intracellular ROS level at 10 uM pretreated for 1 hr followed by H2O2 stimulation and measured after 24 hrs by confocal microscopic analysis. It counts as functional, cell-based. The note with it: time 25.0 hrs.
The test system of series [8] is PC-12. The series is described as follows: Neuroprotective activity against H2O2-induced rat PC-12 cells assessed as protection against H2O2-induced apoptosis by measuring late apoptotic cells at 10 uM pretreated for 1 hr followed by H2O2 addition and measured after 24 hrs by Annexin V-FITC/PI staining based flow cytometry analysis (reference value: 7.97%). It counts as functional. The note with it: time 25 hrs.

For series [9], the target named is T2, Cholinesterase. The series can be described thus: Pseudo-irreversible inhibition of human serum BuChE using butyrylthiocholine iodide as substrate at 4 times IC50 preincubated for 20 mins followed by dialysis and measured after 12 hrs by DTNB reagent based Ellman's method. In general terms: DTNB colorimetry detects thiols as they appear.
The target in series [10] is T1, Acetylcholinesterase. The series is described as follows: Pseudo-irreversible inhibition of human erythrocyte AChE at 4 times IC50 preincubated for 20 mins followed by dialysis and measured after 12 hrs. It counts as cell-based.

Activity calls are given as the source filed them. The calls are words filed in the database; no cut-off is given here. Bounds are passed on as bounds.

On to `C[C@@H](c1cccc(OC(=O)NCCCCCNc2c3c(nc4cc(Cl)ccc24)CCCC3)c1)N(C)C`, for which the results for the IC50 on Acetylcholinesterase [1] and at Cholinesterase [2] were 8.28 nM and 26.9 nM, respectively.

Regarding `O=C(NCCCCCCNc1c2c(nc3cc(Br)ccc13)CCCC2)Oc1ccc(-c2cc3cccnc3[nH]2)cc1`, the IC50 on Acetylcholinesterase [1] was determined as 55 nM; on Cholinesterase [2] it was 556 nM.

As to `O=C(NCCCCCCNc1c2c(nc3ccccc13)CCCC2)Oc1ccc(-c2cc3cccnc3[nH]2)cc1`, the IC50 was determined as 21.3 nM against Acetylcholinesterase [1] and 18.3 nM at Cholinesterase [2].

With `O=C(NCCCCNc1c2c(nc3ccccc13)CCCC2)Oc1ccc(-c2cc3cccnc3[nH]2)cc1`, the outcome in the series with BV-2 [3] was Active. For the same compound, the viability at 24 h, 10 µM in series [4] was > 90%. For the same compound, the Activity in the series on PC-12 [5] is given as 77.2%; with BV-2 [6] it was “Non-Toxic”; with PC-12 [8] it was 2.92%. In addition, the IC50 worked out at 205 nM at Acetylcholinesterase [1] and 20.5 nM at Cholinesterase [2]. Besides, the inhibition result with PC-12 [7] is “Active”.

For the compound `O=C(NCCCCCNc1c2c(nc3cc(Br)ccc13)CCCC2)Oc1ccc2cc[nH]c2c1`, the IC50 against Acetylcholinesterase [1] came out at 317 nM; at Cholinesterase [2], 43.1 nM.

Regarding `C[C@@H](c1cccc(OC(=O)NCCCCNc2c3c(nc4ccccc24)CCCC3)c1)N(C)C`, the figures for the IC50 on Acetylcholinesterase [1] and against Cholinesterase [2] were 292 nM and 43.5 nM, respectively.

With `O=C(NCCCCCCNc1c2c(nc3cc(Cl)ccc13)CCCC2)Oc1ccc(-c2cc3cccnc3[nH]2)cc1`, the IC50 turned out to be 64.7 nM against Acetylcholinesterase [1] and 280 nM against Cholinesterase [2].

`O=C(NCCCCCNc1c2c(nc3cc(F)ccc13)CCCC2)Oc1ccc(-c2cc3cccnc3[nH]2)cc1`: the values for the concentration for half-maximal inhibition (IC50) against Acetylcholinesterase [1] and against Cholinesterase [2] were 152 nM and 334 nM, respectively.

As for `O=C(NCCNc1c2c(nc3ccccc13)CCCC2)Oc1ccc2cc[nH]c2c1`, the IC50 against Acetylcholinesterase [1] turned out to be 1250 nM; against Cholinesterase [2], 0.37 nM.

`O=C(NCCCNc1c2c(nc3ccccc13)CCCC2)Oc1ccc(-c2cc3cccnc3[nH]2)cc1`: in series [4], the viability at 24 h, 10 µM was > 90%. Further, the values for the half-maximal inhibitory concentration (IC50) on Acetylcholinesterase [1] and against Cholinesterase [2] were 233 nM and 16.1 nM, respectively.

Take `O=C(NCCCCCNc1c2c(nc3cc(Cl)ccc13)CCCC2)Oc1ccc2cc[nH]c2c1`: in series [4], the viability at 24 h, 10 µM was > 90%. For the same compound, in the series with BV-2 [6], the Activity entry is “Toxic”. The IC50 against Acetylcholinesterase [1] was found to be 248 nM; on Cholinesterase [2] it was 48.6 nM.

As to `O=C(NCCNc1c2c(nc3ccccc13)CCCC2)Oc1ccc(-c2cc3cccnc3[nH]2)cc1`, the IC50 was > 10000 nM at Acetylcholinesterase [1] and 52.2 nM on Cholinesterase [2].

For the compound `O=C(NCCCCNc1c2c(nc3ccccc13)CCCC2)Oc1ccc2cc[nH]c2c1`, the IC50 against Acetylcholinesterase [1] is 510 nM; on Cholinesterase [2], 1.35 nM.

For `C[C@@H](c1cccc(OC(=O)NCCCCCCNc2c3c(nc4cc(Cl)ccc24)CCCC3)c1)N(C)C`, the IC50 turned out to be 25.6 nM against Acetylcholinesterase [1] and 92.8 nM against Cholinesterase [2].

Turning to `O=C(NCCCCCCNc1c2c(nc3cc(Cl)ccc13)CCCC2)Oc1ccc2cc[nH]c2c1`, the IC50 was found to be 153 nM at Acetylcholinesterase [1] and 64.4 nM on Cholinesterase [2].

Consider `O=C(NCCCCCCNc1c2c(nc3cc(Br)ccc13)CCCC2)Oc1ccc2cc[nH]c2c1`, for which the IC50 at Acetylcholinesterase [1] is 113 nM; against Cholinesterase [2], 57.9 nM.

For the compound `O=C(NCCCCCCNc1c2c(nc3cc(F)ccc13)CCCC2)Oc1ccc2cc[nH]c2c1`, the IC50 against Acetylcholinesterase [1] is 297 nM; against Cholinesterase [2], 43.1 nM.

As for `O=C(NCCCCCNc1c2c(nc3ccccc13)CCCC2)Oc1ccc(-c2cc3cccnc3[nH]2)cc1`, the IC50 against Acetylcholinesterase [1] amounted to 153 nM; on Cholinesterase [2] it was 21.2 nM.

For `C[C@@H](c1cccc(OC(=O)NCCCNc2c3c(nc4ccccc24)CCCC3)c1)N(C)C`, the IC50 was found to be 385 nM against Acetylcholinesterase [1] and 23.2 nM on Cholinesterase [2].

Take `C[C@@H](c1cccc(OC(=O)NCCCCCCNc2c3c(nc4ccccc24)CCCC3)c1)N(C)C`: the half-inhibitory concentration (IC50) against Acetylcholinesterase [1] turned out to be 119 nM; against Cholinesterase [2] it was 14.8 nM.

With `C[C@@H](c1cccc(OC(=O)NCCCCCNc2c3c(nc4ccccc24)CCCC3)c1)N(C)C`, the values for the IC50 on Acetylcholinesterase [1] and against Cholinesterase [2] were 117 nM and 12 nM, respectively.

As to `C[C@@H](c1cccc(OC(=O)NCCCCCCNc2c3c(nc4cc(Br)ccc24)CCCC3)c1)N(C)C`, the IC50 against Acetylcholinesterase [1] amounted to 56 nM; on Cholinesterase [2] it was 9.65 nM.

Take `C[C@@H](c1cccc(OC(=O)NCCCCCNc2c3c(nc4cc(F)ccc24)CCCC3)c1)N(C)C`: the figures for the IC50 at Acetylcholinesterase [1] and at Cholinesterase [2] were 37.8 nM and 137 nM, respectively.

With `CCN(C)C(=O)Oc1cccc([C@H](C)N(C)C)c1`, the inhibition entry at Cholinesterase [9] and at Acetylcholinesterase [10] was “Active” in each case.

Regarding `C[C@@H](c1cccc(OC(=O)NCCCCCCNc2c3c(nc4cc(F)ccc24)CCCC3)c1)N(C)C`, the IC50 against Acetylcholinesterase [1] amounted to 42.2 nM; against Cholinesterase [2] it was 11 nM.

Take `Oc1ccc(/C=C/c2cc(O)cc(O)c2)cc1` [RESVERATROL]: the Activity came to 87.3% in the series with PC-12 [5] and 1.4% with PC-12 [8].

As for `O=C(NCCCCCNc1c2c(nc3cc(F)ccc13)CCCC2)Oc1ccc2cc[nH]c2c1`, the results for the IC50 against Acetylcholinesterase [1] and on Cholinesterase [2] were 273 nM and 40 nM, respectively.

As for `O=C(NCCCCCNc1c2c(nc3cc(Cl)ccc13)CCCC2)Oc1ccc(-c2cc3cccnc3[nH]2)cc1`, the half-maximal inhibitory concentration (IC50) against Acetylcholinesterase [1] was found to be 23.1 nM; against Cholinesterase [2], 1660 nM.

Take `C[C@@H](c1cccc(OC(=O)NCCNc2c3c(nc4ccccc24)CCCC3)c1)N(C)C`: the values for the concentration for half-maximal inhibition (IC50) against Acetylcholinesterase [1] and on Cholinesterase [2] were 252 nM and > 10000 nM, respectively.

Consider `C[C@@H](c1cccc(OC(=O)NCCCCCNc2c3c(nc4cc(Br)ccc24)CCCC3)c1)N(C)C`, for which the IC50 was determined as 47.7 nM at Acetylcholinesterase [1] and 21.6 nM against Cholinesterase [2].

In the case of `O=C(NCCCNc1c2c(nc3ccccc13)CCCC2)Oc1ccc2cc[nH]c2c1`, the half-inhibitory concentration (IC50) on Acetylcholinesterase [1] came out at 552 nM; at Cholinesterase [2] it was 7.23 nM.

Regarding `O=C(NCCCCCNc1c2c(nc3ccccc13)CCCC2)Oc1ccc2cc[nH]c2c1`, the IC50 was 421 nM at Acetylcholinesterase [1] and 23.3 nM against Cholinesterase [2].

Regarding `O=C(NCCCCCNc1c2c(nc3cc(Br)ccc13)CCCC2)Oc1ccc(-c2cc3cccnc3[nH]2)cc1`, the figures for the IC50 at Acetylcholinesterase [1] and against Cholinesterase [2] were 59.1 nM and 791 nM, respectively.

In the case of `O=C(NCCCCCCNc1c2c(nc3ccccc13)CCCC2)Oc1ccc2cc[nH]c2c1`, the IC50 at Acetylcholinesterase [1] is 382 nM; against Cholinesterase [2], 76.5 nM.
